Where a name gives a salt, the structure may show the parent alone.
Test system: P. infestans
Assay: whole plant or invertebrate
Format: in vivo
Details: Phytophthora infestans, in Solanum tuberosum, read-out: P. infestans % inhibition

Row | SMILES | inhibition at 100 µM [%]
1 | CN1CCOc2cc(-c3nc(-c4cccc(N5CCOCC5)c4)no3)ccc21 [Compound 98, 4-Methyl-7-{3-[3-(morpholin-4-yl)phenyl]-1,2,4-oxadiazol-5-yl}-3,4-dihydro-2H-1,4-benzoxazine] | 22
2 | O=C(O)c1ccc(-c2n[nH]c(-c3ccc(Cl)cc3)n2)cc1 [Compound 56, 4-[5-(4-Chlorophenyl)-1H-1,2,4-triazol-3-yl]benzoic acid hydrochloride] | 17
3 | COc1ccc(-c2nc(-c3ccc(C(F)(F)F)cc3)no2)cc1 [Compound 64, 5-(4-Methoxyphenyl)-3-[4-(trifluoromethyl)phenyl]-1,2,4-oxadiazole] | 23
4 | O=C(c1cccc(-c2nc(-c3cccc(F)c3)n[nH]2)c1)N1CCOCC1 [Compound 163, {3-[3-(3-Fluorophenyl)-1H-1,2,4-triazol-5-yl]phenyl}(morpholin-4-yl)methanone] | 22
5 | CCc1ccc(-c2cc(-c3ccc(N4CCC4)cc3)on2)cc1 [Compound 90, 5-[4-(Azetidin-1-yl)phenyl]-3-(4-ethylphenyl)-1,2-oxazole] | 13
6 | Cc1cccc(-c2n[nH]c(-c3cccc(O)c3)n2)c1 [Compound 107, 5-(3-Hydroxyphenyl)-3-(3-methylphenyl)-1H-1,2,4-triazole] | 91
7 | COc1ccc(-c2nc(-c3cccc(Cl)c3)n[nH]2)cc1OC [Compound 158, 3-(3-Chlorophenyl)-5-(3,4-dimethoxyphenyl)-1H-1,2,4-triazole] | 59
8 | COc1ccc(-c2n[nH]c(-c3cccc(NC(=O)[C@H](C)N)c3)n2)cc1 [Compound 140, (2S)-2-Amino-N-{3-[3-(4-methoxyphenyl)-1H-1,2,4-triazol-5-yl]phenyl}propenamide hydrochloride] | 39
9 | Oc1ccc(-c2c[nH]c(-c3ccc(Br)cc3)n2)cc1 [Compound 118, 2-(4-Bromophenyl)-5-(4-hydroxyphenyl)-1H-imidazole] | 83
10 | CC(C)OC(=O)Nc1ccc(-c2nc(-c3cccc(C(F)(F)F)c3)no2)cc1 [Compound 75, Propan-2-yl (4-{3-[3-(trifluoromethyl)phenyl]-1,2,4-oxadiazol-5-yl}phenyl)carbamate] | 31
11 | COc1ccc(S(=O)(=O)Nc2ccc(-c3coc(-c4ccc(OC(C)C)cc4)n3)cc2)cc1 [Compound 124] | 4
12 | COc1ccc(-c2c[nH]c(-c3ccc(Br)cc3)n2)cc1 [Compound 117, 2-(4-Bromophenyl)-5-(4-methoxyphenyl)-1H-imidazole] | 97
13 | CN1CCOc2cc(-c3cc(-c4cccc(Br)c4)[nH]n3)ccc21 [Compound 44, 7-[5-(3-Bromophenyl)-1H-pyrazol-3-yl]-4-methyl-3,4-dihydro-2H-1,4-benzoxazine] | 5
14 | CCc1ccc(-c2c[nH]c(-c3cccc(C(=O)O)c3)n2)cc1 [Compound 125, 3-[4-(4-Ethylphenyl)-1H-imidazol-2-yl]benzoic acid] | 30
15 | COCCNC(=O)Nc1cccc(-c2cc(-c3cccc(OC(F)(F)F)c3)[nH]n2)c1 [Compound 148, 1-{3-[5-(3-Trifluoromethoxyphenyl)-1H-pyrazol-3-yl]phenyl}-3-(2-methoxyethyl)urea] | 6
16 | COc1ccc(-c2n[nH]c(-c3ccc(Br)cc3)n2)cc1 [Compound 164, 5-(4-Bromophenyl)-3-(4-methoxyphenyl)-1H-1,2,4-triazole] | 8
17 | CN1CCN(C(=O)c2cccc(-c3cc(-c4ccc(C(F)(F)F)cc4)[nH]n3)c2)CC1 [Compound 147, {3-[5-(4-Trifluoromethylphenyl)-1H-pyrazol-3-yl]phenyl}(4-methylpiperazin-1-yl)methanone] | 81
18 | O=C(O)c1cccc(-c2noc(-c3ccccc3F)n2)c1 [Compound 62, 3-[5-(2-Fluorophenyl)-1,2,4-oxadiazol-3-yl]benzoic acid] | 64
19 | CC1(C)CCc2cc(-c3cc(-c4cccc(Br)c4)[nH]n3)ccc2O1 [Compound 97, 5-(3-Bromophenyl)-3-(2,2-dimethyl-3,4-dihydro-2H-chromen-6-yl)-1H-pyrazole] | 10
20 | O=C(O)c1cccc(-c2ncc(-c3ccc(C(F)(F)F)cc3O)o2)c1 [Compound 69, 3-{5-[2-Hydroxy-4-(trifluoromethyl)phenyl]-1,3-oxazol-2-yl}benzoic acid] | 99
21 | Cc1ccc(-c2cnc(-c3ccc(C(=O)O)cc3)o2)cc1 [Compound 116, 4-[5-(4-Methylphenyl)-1,3-oxazol-2-yl]benzoic acid] | 72
22 | COc1cc(-c2cc(-c3cccc(C(F)(F)F)c3)no2)ccc1Cl [Compound 48, 5-(4-Chloro-3-methoxyphenyl)-3-[3-(trifluoromethyl)phenyl]-isoxazole] | 21
23 | Oc1ccc(-c2c[nH]c(-c3ccc(Cl)cc3)n2)cc1 [Compound 78, 2-(4-Chlorophenyl)-5-(4-hydroxyphenyl)-1H-imidazole] | 79

Row | SMILES | inhibition at 100 µM [%]
24 | COc1ccc(NC(=O)Nc2ccc(-c3cc(-c4cccc(F)c4)on3)cc2)cc1 [Compound 57, 1-{4-[5-(3-Fluorophenyl)-1,2-oxazol-3-yl]phenyl}-3-(4-methoxyphenyl)urea] | 8
25 | CCc1ccc(-c2c[nH]c(-c3ccc(NC(C)=O)cc3)n2)cc1 [Compound 155, N-{4-[4-(4-Ethylphenyl)-1H-imidazol-2-yl]phenyl}acetamide] | 16
26 | CSc1ccc(Cl)c(-c2nc(-c3cccc(OC(F)(F)F)c3)no2)c1 [Compound 65, 5-[2-Chloro-5-(methylsulfanyl)phenyl]-3-[3-(trifluoromethoxy)phenyl]-1,2,4-oxadiazole] | 31
27 | CCOC(=O)c1ccc(-c2ncc(-c3ccc(C)cc3)o2)cc1 [Compound 115, Ethyl 4-[5-(4-methylphenyl)-1,3-oxazol-2-yl]benzoate] | 12
28 | Oc1cccc(-c2cnc(-c3cccc(Br)c3)[nH]2)c1 [Compound 87, 2-(3-Bromophenyl)-5-(3-hydroxyphenyl)-1H-imidazole] | 99
29 | COc1ccc(-c2c[nH]c(-c3ccc(Cl)cc3)n2)cc1 [Compound 113, 2-(4-Chlorophenyl)-5-(4-methoxyphenyl)-1H-imidazole] | 90
30 | CCc1ccc(-c2nc(-c3ccc(OC(F)(F)F)cc3)c[nH]2)cc1 [Compound 66, 2-(4-Ethylphenyl)-4-[4-(trifluoromethoxy)phenyl]-1H-imidazole] | 29
31 | Oc1cc(-c2cc(-c3cccc(C(F)(F)F)c3)no2)ccc1Cl [Compound 49, 5-(4-Chloro-3-hydroxyphenyl)-3-[3-(trifluoromethyl)phenyl]-isoxazole] | 3
32 | O=C(Nc1ccc(-c2nc(-c3ccc(OC(F)(F)F)cc3)n[nH]2)cc1)C(F)(F)F [Compound 61, 2,2,2-Trifluoro-N-(4-{5-[4-(trifluoromethoxy)phenyl]-1H-1,2,4-triazol-3-yl}phenyl)acetamide] | 71
33 | CCc1ccc(-c2cc(-c3cccc(NC(=O)OCCOC)c3)[nH]n2)cc1 [Compound 126, 2-Methoxyethyl {3-[5-(4-ethylphenyl)-1H-pyrazol-3-yl]phenyl}carbamate] | 81
34 | CCOc1ccc(-c2coc(-c3cccc(C(C)C)c3)n2)cc1 [Compound 110, 4-(4-Ethoxyphenyl)-2-[3-(propan-2-yl)phenyl]-1,3-oxazole] | 18
35 | Cc1ccc(NC(=O)[C@@H](N)Cc2ccccc2)cc1-c1nc(-c2ccc(F)cc2)n[nH]1 [Compound 103, (2S)-2-Amino-N-{3-[3-(4-fluorophenyl)-1H-1,2,4-triazol-5-yl]-4-methylphenyl}-3-phenylpropanamide hydrochloride] | 99
36 | N[C@@H](CC(=O)O)C(=O)Nc1ccc(-c2nc(-c3cccc(C(F)(F)F)c3)no2)cc1 [Compound 133, (3S)-3-Amino-4-oxo-4-[(4-{3-[3-(trifluoromethyl)phenyl]-1,2,4-oxadiazol-5-yl}phenyl)amino]butanoic acid hydrochloride] | 85
37 | O=C(O)c1cccc(-c2cc(-c3ccc4c(c3)OCO4)[nH]n2)c1 [Compound 166, 3-[5-(1,3-Benzodioxol-5-yl)-1H-pyrazol-3-yl]benzoic acid] | 6
38 | Cc1ccc(-c2n[nH]c(-c3cccc(N4CCCC4)c3)n2)cc1C [Compound 156, 3-(3,4-Dimethylphenyl)-5-[3-(pyrrolidin-1-yl)phenyl]-1H-1,2,4-triazole] | 25
39 | COCCNC(=O)Nc1ccc(-c2n[nH]c(-c3ccc(C(F)(F)F)cc3)n2)cc1 [Compound 82, 1-(2-Methoxyethyl)-3-(4-{5-[4-(trifluoromethyl)phenyl]-1H-1,2,4-triazol-3-yl}phenyl)urea] | 18
40 | Oc1ccc(F)cc1-c1c[nH]c(-c2ccc(C(F)(F)F)cc2)n1 [Compound 81, 5-(2-Hydroxy-5-fluorophenyl)-2-[4-(trifluoromethyl)phenyl]-1H-imidazole] | 10
41 | Cc1ccc(NC(=O)c2cccc(Cl)c2)cc1-c1nc(-c2ccc(F)cc2)n[nH]1 [Compound 102, 3-Chloro-N-{3-[3-(4-fluorophenyl)-1H-1,2,4-triazol-5-yl]-4-methylphenyl}benzamide] | 30
42 | Clc1ccccc1-c1cc(-c2ccc(N3CCCCC3)cc2)on1 [Compound 91, 1-{4-[3-(2-Chlorophenyl)-1,2-oxazol-5-yl]phenyl}piperidine] | 29
43 | Cc1cccc(-c2nc(-c3cccc(F)c3)c[nH]2)c1 [Compound 150, 4-(3-Fluorophenyl)-2-(3-methylphenyl)-1H-imidazole] | 91
44 | Cc1ccc(-c2cc(-c3cccc(OC(F)(F)F)c3)no2)cc1C [Compound 53, 5-(3,4-Dimethylphenyl)-3-[3-(trifluoromethoxy)phenyl]-isoxazole] | 23
45 | Fc1cccc(-c2c[nH]c(-c3cccc(C(F)(F)F)c3)n2)c1 [Compound 151, 4-(3-Fluorophenyl)-2-[3-(trifluoromethyl)phenyl]-1H-imidazole] | 85
